Experimental data: patent US9243272B2, “Enzyme preparation containing thermostable DNA polymerase, method for producing same, and method for detecting subject organism to be detected” (HOKKAIDO MITSUI CHEMICALS INC., priority 2009, dated 2016)

Tests used:
[1] = tested on: Bacillus cereus; experiment: Rapid liquid phase drug sensitivity test, enrichment rate by real-time PCR (e-DNAP, non-display method); assay type: cell-based; conditions: 10 μg/mL; four hours after culture; enrichment rate without antibiotic agent defined as 100%
Procedure: (§1) In current drug sensitivity tests, it generally takes several days to obtain results. However, when the highly sensitive quantification method in accordance with the present invention is applied, results can be obtained in only four to six hours. […] Accordingly, a sensitive test must be started once culture was carried out, so that it takes at least one day to obtain a result. An equal amount of each sample (for example, blood of septicemia) was infused into a liquid medium (BHI: Brain Heart Infusion), each sample medium was collected before culture, two hours after the culture, and four hours after the culture under the condition in which an antibiotic agent was added or not added, cells were subjected to centrifugation and pelletizing so as to obtain DNA, respectively. Furthermore, it is desirable that extraction of DNA is carried out by using an automatic nucleic acid extraction device. A real-time PCR reagent for detecting bacteria, conditions and the primer constitution were the same as in Example 2. When calculation is carried out when the quantification result before culture is defined as 0 and the quantification result two hours after and four hours after culture in which an antibiotic agent was not added is respectively defined as 100 (an enrichment rate when an antibiotic agent was not added is defined as 100%), the enrichment rate was calculated two hours after and four hours after the culture in which an antibiotic agent was added. For example, the amount of bacteria/fungi before culture is […], the amount of bacteria two hours after culture in which an antibiotic agent is not added is […], and the amount two hours after culture in which an antibiotic agent is added is […], the enrichment rate two hours after an antibiotic agent is added can be calculated by the following formula: Enrichment rate two hours after an antibiotic agent is added=[…])×100 (%) Alternatively, instead of comparing the enrichment rates, the amounts […] be compared directly. […]

[2] = tested on: Staphylococcus epidermidis; experiment: Rapid liquid phase drug sensitivity test, bacteria quantified by real-time PCR (e-DNAP, non-display method); assay type: cell-based; conditions: 10 μg/mL; two hours and four hours after culture
Procedure: as §1, with “An equal amount of each sample (for example, blood of septicemia) was infused into a liquid medium (BHI: Brain Heart Infusion), each sample medium was collected before culture, two hours after the culture, and four hours after the culture under the condition in which an antibiotic agent was added or not added, cells were subjected to centrifugation and pelletizing so as to obtain DNA, respectively. Furthermore, it is desirable that extraction of DNA is carried out by using an automatic nucleic acid extraction device. A real-time PCR reagent for detecting bacteria, conditions and the primer constitution were the same as in Example 2.” left out

[3] = tested on: bacterial 16S rRNA-derived gene; experiment: Amplification curve and melting curve analysis by real-time PCR (contamination of non-specific nucleic acid); set-up: species or system Escherichia coli; conditions: real-time PCR 60 cycles; template not added
Procedure: In order to investigate contamination of non-specific nucleic acid in the above-mentioned thermostable DNA polymerase preparations, analyses of an amplification curve and a melting curve were carried out by using real-time PCR. FIGS. 5(A) and FIG. 5(B) show analysis of amplification curves. FIGS. 6(A) and FIG. 6(B) show analysis of melting curves. Furthermore, FIG. 5(A) and FIG. 6(A) are graphs showing analysis carried out by using thermostable DNA polymerase preparation produced by using AmpliTaq Gold LD as a host. FIG. 5(B) and FIG. 6(B) are graphs showing analysis carried out by using thermostable DNA polymerase preparation produced by using S. cerevisiae as a host. Solid lines show a case in which Escherichia coli was added as a template, and broken lines show a case in which a template was not added. As the real-time PCR reagent, ×10 Buffer was obtained by adding 10 μl of ultrapure water into a 1b tube of LightCycler FastStart DNA Master SYBR GreenI (Roche). In this tube, dNTPs and SYBR GreenI in addition to a buffer reagent optimized for the Taq DNA polymerase are contained. […]

CC1(C)S[C@@H]2[C@H](NC(=O)[C@H](N)c3ccccc3)C(=O)N2[C@H]1C(=O)O [ampicillin]
enrichment rate [1]: 0%

Cc1nnc(SCC2=C(C(=O)O)N3C(=O)[C@@H](NC(=O)Cn4cnnn4)[C@H]3SC2)s1 [cefazolin]
enrichment rate [1]: 16%

CC[C@H]1OC(=O)[C@H](C)[C@@H](O[C@H]2C[C@@](C)(OC)[C@@H](O)[C@H](C)O2)[C@H](C)[C@@H](O[C@@H]2O[C@H](C)C[C@H](N(C)C)[C@H]2O)[C@](C)(O)C[C@@H](C)C(=O)[C@H](C)[C@@H](O)[C@]1(C)O [erythromycin]
drug sensitivity (comparison of amount of bacteria itself) [2]: sensitivity to EM was observed | enrichment rate [1]: 76%

AmpliTaq Gold LD: commercial thermostable DNA polymerase preparation (ABI), produced in bacteria and purified to minimize bacterial DNA
contamination of non-specific nucleic acid in amplification curve and melting curve [3]: contamination of non-specific nucleic acid was observed

gentamicin
drug sensitivity (comparison of amount of bacteria itself) [2]: sensitivity to GM was not observed
